These results are taken from US9073875B2, “Compounds useful as inhibitors of indoleamine 2,3-dioxygenase” (Vertex Pharmaceuticals Incorporated, priority 2012, dated 2015).

Each structure is given as a SMILES string.

The target of the assay is T1, IDO1 (Homo sapiens, UniProt P14902).
T1 construct: HeLa cells in which IDO1 expression is induced by IFN-γ; endogenous in cells; host or cells: HeLa cells stimulated with human recombinant IFN-γ
T1 sequence (P14902 whole entry): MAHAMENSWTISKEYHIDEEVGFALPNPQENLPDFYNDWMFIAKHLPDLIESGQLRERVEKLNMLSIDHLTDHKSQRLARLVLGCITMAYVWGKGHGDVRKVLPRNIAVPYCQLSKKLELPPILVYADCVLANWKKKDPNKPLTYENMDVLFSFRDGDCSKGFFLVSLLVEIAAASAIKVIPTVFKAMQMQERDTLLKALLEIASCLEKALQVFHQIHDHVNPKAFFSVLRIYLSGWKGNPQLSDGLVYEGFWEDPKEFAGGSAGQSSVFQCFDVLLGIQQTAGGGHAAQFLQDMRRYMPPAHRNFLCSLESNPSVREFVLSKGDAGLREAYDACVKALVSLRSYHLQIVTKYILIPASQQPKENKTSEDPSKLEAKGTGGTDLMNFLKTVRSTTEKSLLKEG
Description: Cellular IDO1 Inhibition Assay (L-kynurenine production by IFN-γ-stimulated HeLa cells). Particulars: IDO1 induced by IFN-γ, 250 μM L-tryptophan, 48 hours, L-kynurenine by Ehrlich's reagent, maximal concentration 40 μM. The assay is classed as cell-based. As to the method: Compounds can be screened for their ability to inhibit intracellular IDO1 activity, by measuring the production of L-kynurenine by HeLa cells in which IDO1 expression is induced by IFN-γ. Kynurenine levels can be determined by chemical conversion of L-kynurenine with Ehrlich's reagent (Yue et. al., J Med Chem 2009 Dec. 10; 52(23):7364-7).
HeLa cells were plated at 20,000 cells per well in 96-well culture plates (Costar 3598) in DMEM (Sigma D5671) supplemented with 10% fetal bovine serum (SAFC Biosciences 12003C), Penicillin/Streptomycin solution diluted 1:100 (Sigma P7539), 4 mM L-glutamine (Sigma G7513), 1% Non Essential Aminoacids (Sigma M7145) and 1 mM Sodium Pyruvate (Sigma S8636). Cells were allowed to adhere for 24 hours at 37° C. in 5% CO2. Subsequently compounds were first serially diluted 1/3 in DMSO then further diluted in media and finally added to the cells, giving a maximal final concentration of 40 μM. Additional medium containing L-tryptophan to a final concentration of 250 μM (Sigma T0254) and human recombinant IFN-γ (R&D Systems 285-IF) were added to the wells to stimulate IDO1 production. Cells were incubated at 37° C. in 5% CO2 for 48 hours.
For the measurement of L-kynurenine in HeLa supernatants, plates were centrifuged at 1000 RPM for 5 minutes and 140 μl of media transferred into a polypropylene 96 well plate (Costar 3879) containing 10 μl of 26% Trichloroacetic Acid in water (Sigma T9159). Plates were then sealed using a plate sealer (PlateLoc, Agilent Technology) and incubated at 50° C. for 30 minutes. Plates were centrifuged at 2400 RPM for 10 minutes and 100 μl of media transferred to polystyrene 96-well plates together with 100 μl of Ehrlich's reagent (2% p-Dimethylaminobenzaldehyde, (Sigma D2004) in acetic acid (Fisher, A/400/PB17)). Following the addition of Ehrlich's reagent the absorbance at 490 nm was read using a spectrophotometer (Spectramax Plus, Molecular Devices). Kynurenine levels were plotted against compound concentrations to generate dose response curves and obtain […] values for each active compound using Genedata Screener® Software.
Cellular […] values for each compound may be found in Table 2, below, wherein A=<0.1 μM; B=0.1 μM-1 μM; and C=1 μM-40 μM.
As to `Fc1ccc(Nc2cnn[nH]2)cc1` [Compound I-24], the IC50 (in general, the concentration needed to halve the response being measured) fell in the range of 0.1 to 1 µM.

Take `CN(Cc1cc(Cl)ccc1Nc1c[nH]nn1)C(=O)OC(C)(C)C` [Compound I-23]: the IC50 was 1 to 40 µM.

For the molecule `Clc1cccc(Nc2cnn[nH]2)c1` [Compound I-11], the IC50 was in the range of 0.1 to 1 µM. `Cc1cc(Cl)ccc1Nc1c[nH]nn1` [Compound I-5] had an IC50 below 0.1 µM. The same measure for `Clc1ccc(Nc2cn[nH]n2)c(I)c1` [Compound I-25]: 1 to 40 µM; for `Cc1cc(Cl)cc(Nc2cnn[nH]2)c1` [Compound I-41]: 0.1 to 1 µM. The same measure for `Clc1ccc(Nc2c[nH]nn2)c(OCCN2CCOCC2)c1` [Compound I-10]: 0.1 to 1 µM; for `N#Cc1cc(Nc2cn[nH]n2)ccc1Cl` [Compound I-44, 5-((2H-1,2,3-triazol-4-yl)amino)-2-chlorobenzonitrile]: 0.1 to 1 µM. The same measure for `NCc1cc(Cl)ccc1Nc1cnn[nH]1` [Compound I-34, N-(2-(aminomethyl)-4-chlorophenyl)-2H-1,2,3-triazol-4-amine]: 1 to 40 µM. `CCc1cc(Cl)ccc1Nc1cnn[nH]1` [Compound I-1] yielded an IC50 below 0.1 µM. The same measure for `CC(C)(Cc1cc(Cl)ccc1Nc1cn[nH]n1)C(=O)O` [Compound I-33, 3-(2-((2H-1,2,3-triazol-4-yl)amino)-5-chlorophenyl)-2,2-dimethylpropanoic acid]: 1 to 40 µM. Next, `Clc1ccc(Nc2cnn[nH]2)cn1` [Compound I-22, 6-chloro-N-(2H-1,2,3-triazol-4-yl)pyridin-3-amine]: 1 to 40 µM; `OCc1cc(Cl)ccc1Nc1cnn[nH]1` [Compound I-9, (2-((2H-1,2,3-triazol-4-yl)amino)-5-chlorophenyl)methanol]: 0.1 to 1 µM. Next, `Cc1cc(Nc2cnn[nH]2)ccc1Cl` [Compound I-38]: 0.1 to 1 µM; `Cc1cc(Cl)cc(C)c1Nc1cnn[nH]1` [Compound I-15]: 0.1 to 1 µM. On to `COCc1cc(Cl)ccc1Nc1cnn[nH]1` [Compound I-4], for which the IC50 was below 0.1 µM.

For `C=Cc1cc(Cl)ccc1Nc1cnn[nH]1` [Compound I-40], the IC50 is below 0.1 µM. The same measure for `CC(C)(C)C(Cc1cc(Cl)ccc1Nc1cn[nH]n1)C(=O)O` (centres unmarked) [Compound I-35]: 1 to 40 µM; for `CC(C)C(Cc1cc(Cl)ccc1Nc1cn[nH]n1)C(=O)O` (centres unmarked) [Compound I-32]: 1 to 40 µM; for `Clc1cc(Cl)cc(Nc2cn[nH]n2)c1` [Compound I-16]: 0.1 to 1 µM. The same measure for `CN(C)S(=O)(=O)CCc1cc(Cl)ccc1Nc1cnn[nH]1` [Compound I-43]: 0.1 to 1 µM. The same measure for `Brc1cccc(Nc2cn[nH]n2)c1` [Compound I-37]: 0.1 to 1 µM; for `CS(=O)(=O)NCc1cc(Cl)ccc1Nc1cnn[nH]1` [Compound I-21]: 1 to 40 µM; for `COc1cc(Nc2cn[nH]n2)ccc1Cl` [Compound I-8]: 0.1 to 1 µM. `Cc1cc(F)ccc1Nc1c[nH]nn1` [Compound I-36, N-(4-fluoro-2-methylphenyl)-2H-1,2,3-triazol-4-amine] displayed an IC50 below 0.1 µM. The same measure for `Fc1cccc(Nc2cnn[nH]2)c1` [Compound I-45, N-(3-fluorophenyl)-2H-1,2,3-triazol-4-amine]: 0.1 to 1 µM; for `O=C(O)CCc1cc(Cl)ccc1Nc1cn[nH]n1` [Compound I-31]: 1 to 40 µM; for `Clc1ccc(Nc2cnn[nH]2)c(CCN2CCOCC2)c1` [Compound I-46]: 0.1 to 1 µM. Next, `Fc1cc(Nc2c[nH]nn2)ccc1Cl` [Compound I-14]: 0.1 to 1 µM; `Clc1ccc(Nc2cn[nH]n2)cc1` [Compound I-2]: below 0.1 µM; `COc1cc(Cl)ccc1Nc1cn[nH]n1` [Compound I-12]: 0.1 to 1 µM.

For `Fc1ccc(Nc2cnn[nH]2)cc1Cl` [Compound I-13, N-(3-chloro-4-fluorophenyl)-2H-1,2,3-triazol-4-amine], the IC50 was in the range of 0.1 to 1 µM.

`Clc1ccc(Nc2cnn[nH]2)c(Cl)c1` [Compound I-27] had an IC50 of 1 to 40 µM. In the case of `Brc1ccc(Nc2c[nH]nn2)cc1` [Compound I-3], the half-inhibitory concentration (IC50) is below 0.1 µM. With `CNS(=O)(=O)CCc1cc(Cl)ccc1Nc1cnn[nH]1` [Compound I-17], the IC50 fell in the range of 0.1 to 1 µM. The same measure for `Fc1ccc(Nc2cnn[nH]2)cc1Br` [Compound I-18]: 0.1 to 1 µM. The molecule `O=C(O)C1CC(Cc2cc(Cl)ccc2Nc2cn[nH]n2)C1` (centres unmarked) [Compound I-28, 3-(2-((2H-1,2,3-triazol-4-yl)amino)-5-chlorobenzyl)cyclobutanecarboxylic acid] yielded an IC50 of 1 to 40 µM. `COCCc1cc(Cl)ccc1Nc1cn[nH]n1` [Compound I-6] returned an IC50 below 0.1 µM.

Turning to `Clc1ccc(Nc2cnn[nH]2)cc1Cl` [Compound I-19], the half-inhibitory concentration (IC50) lay within 0.1 to 1 µM.

`CCc1cc(Nc2cnn[nH]2)ccc1Cl` [Compound I-7] gave an IC50 of 0.1 to 1 µM.

On to `CN1CCN(CCOc2cc(Cl)ccc2Nc2cnn[nH]2)CC1` [Compound I-48], for which the IC50 was in the range of 0.1 to 1 µM. In the case of `Clc1ccccc1Nc1cnn[nH]1` [Compound I-29], the IC50 is 1 to 40 µM. The same measure for `Cc1ccc(Cl)cc1Nc1cnn[nH]1` [Compound I-42]: below 0.1 µM.

Molecule `Clc1ccc(Nc2cnn[nH]2)c(CCCN2CCOCC2)c1` [Compound I-47] came in with an IC50 of 0.1 to 1 µM. Take `CC(=O)NCc1cc(Cl)ccc1Nc1cnn[nH]1` [Compound I-20, N-(2-((2H-1,2,3-triazol-4-yl)amino)-5-chlorobenzyl)acetamide]: the IC50 was 0.1 to 1 µM. Next, `Cc1c(Cl)cccc1Nc1cnn[nH]1` [Compound I-39]: 0.1 to 1 µM; `Fc1cc(Cl)ccc1Nc1cnn[nH]1` [Compound I-30]: 1 to 40 µM.
